Assay results reported in paper PMC11956017, “Design of Benzyl-triazolopyrimidine-Based NADPH Oxidase Inhibitors Leads to the Discovery of a Potent Dual Covalent NOX2/MAOB Inhibitor” (Journal of Medicinal Chemistry, 2025).
“Also recorded” adds a separate entry of the source.

Legend:
human MAOB = target: T1, human MAOB (Homo sapiens, UniProt P27338); assay: Purified MAOB, Amplex Red/horseradish peroxidase coupled assay; assay type: biochemical; details: for IC50 / IC50 Purified MAOB: 10 nM MAOB, 1 mM benzylamine
T1 construct: made in house; host or cells: Pichia pastoris
T1 sequence (P27338 1-520): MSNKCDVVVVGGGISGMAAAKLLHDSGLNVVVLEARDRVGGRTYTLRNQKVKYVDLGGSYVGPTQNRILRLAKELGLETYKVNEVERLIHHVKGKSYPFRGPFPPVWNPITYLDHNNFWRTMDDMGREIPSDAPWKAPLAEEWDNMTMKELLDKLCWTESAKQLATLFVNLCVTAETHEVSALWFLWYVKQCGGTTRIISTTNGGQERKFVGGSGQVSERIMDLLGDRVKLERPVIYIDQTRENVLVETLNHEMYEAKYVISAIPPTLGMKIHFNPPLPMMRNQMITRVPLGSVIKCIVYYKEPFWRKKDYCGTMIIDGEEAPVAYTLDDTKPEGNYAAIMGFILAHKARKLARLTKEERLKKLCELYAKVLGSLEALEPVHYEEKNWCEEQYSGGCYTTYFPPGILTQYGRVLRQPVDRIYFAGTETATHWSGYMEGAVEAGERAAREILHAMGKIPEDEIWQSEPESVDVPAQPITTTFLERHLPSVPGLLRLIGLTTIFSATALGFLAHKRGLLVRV
Method: (§1) IC50 values on human MAOA and human MAOB were determined using the Amplex Red/horseradish peroxidase coupled assay. […] Measurements were performed using a ClarioStar plate reader (excitation 572 nm and emission 583 nm) (BMG Labtech). IC50 values were obtained by fitting the percentage of inhibition versus log(inhibitor concentration) using GraphPad software 7.0. The covalent modification of the flavin upon the reaction with the propargylamine-containing inhibitors was monitored spectrophotometrically using a diode array UV/visible spectrophotometer (Agilent Technologies). […] The cofactor covalent modification was monitored over time following the shift of the enzyme-bound flavin (peaks at 370 and 456 nm) to 410 nm (ε410 = 23,500 M^–1 cm^–1) (Figure S10).

human NOX1 = target: T2, human NOX1 (Homo sapiens, UniProt Q9Y5S8); assay: Human NOX1 isolated membranes, Amplex Red/horseradish peroxidase coupled assay; assay type: biochemical; details: membrane-embedded, 40 μM NADPH; for IC50: read-out: IC50 on human NOXs, NOX1 (AMPLEX RED)
T2 construct: expressed in transfected cells; host or cells: HEK293 F cells, transient transfection (pEG BacMam vector); isolated membranes; Cytosolic proteins made in E. coli
T2 sequence (Q9Y5S8 1-564): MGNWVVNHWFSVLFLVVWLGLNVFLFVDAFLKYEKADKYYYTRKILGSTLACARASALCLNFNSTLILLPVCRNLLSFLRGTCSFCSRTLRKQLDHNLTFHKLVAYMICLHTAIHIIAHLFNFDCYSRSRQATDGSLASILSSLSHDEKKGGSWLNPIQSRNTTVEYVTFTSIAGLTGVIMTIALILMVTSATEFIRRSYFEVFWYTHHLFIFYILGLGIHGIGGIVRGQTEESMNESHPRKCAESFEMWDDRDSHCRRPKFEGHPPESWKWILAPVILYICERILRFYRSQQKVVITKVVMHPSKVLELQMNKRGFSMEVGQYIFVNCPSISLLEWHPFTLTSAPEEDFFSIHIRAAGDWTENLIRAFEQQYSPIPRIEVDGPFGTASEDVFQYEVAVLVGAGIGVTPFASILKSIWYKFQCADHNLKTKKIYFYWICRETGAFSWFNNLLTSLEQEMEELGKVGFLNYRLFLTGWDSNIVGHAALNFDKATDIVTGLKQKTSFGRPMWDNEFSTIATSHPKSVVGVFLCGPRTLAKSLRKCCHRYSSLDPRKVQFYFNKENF
T2 sequence (P13498 1-195 partner): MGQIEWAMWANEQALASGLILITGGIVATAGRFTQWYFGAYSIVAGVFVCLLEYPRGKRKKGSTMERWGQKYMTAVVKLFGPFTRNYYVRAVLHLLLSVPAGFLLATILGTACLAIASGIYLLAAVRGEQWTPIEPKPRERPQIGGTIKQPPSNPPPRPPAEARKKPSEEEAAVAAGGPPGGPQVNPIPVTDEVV
Method: Activity assays for IC50 determinations were performed as previously described[40],[42] with modifications for covalent inhibitors. […] The estimated final protein concentrations based on the heme’s absorbance (ε414 nm = 131,000 M^–1 cm^–1) were 10–20 nM. Compounds were incubated for 1 h at 25 °C at varying concentrations, and reactions were initiated with 40 μM NADPH. Fluorescence was measured using a ClarioStar plate reader (excitation 572 nm/emission 583 nm).

NOX2 = NOX2 (Homo sapiens, UniProt P04839); assay: In cellulo NOX2 activity in NOX2-overexpressing PLB-985 cells, cytochrome c reduction; assay type: cell-based; set-up: NOX2 was expressed as native protein in X-CGD PLB-985 cells transduced with the RD114 pseudotyped MFGS-NOX2 vector; expressed in transfected cells; host or cells: X-CGD PLB-985 cells transduced with MFGS-NOX2 vector; details: for IC50: intact PMA-stimulated cells, cytochrome c 200 μM
NOX2, sequence (P04839 2-570 limits assumed, one chain of several): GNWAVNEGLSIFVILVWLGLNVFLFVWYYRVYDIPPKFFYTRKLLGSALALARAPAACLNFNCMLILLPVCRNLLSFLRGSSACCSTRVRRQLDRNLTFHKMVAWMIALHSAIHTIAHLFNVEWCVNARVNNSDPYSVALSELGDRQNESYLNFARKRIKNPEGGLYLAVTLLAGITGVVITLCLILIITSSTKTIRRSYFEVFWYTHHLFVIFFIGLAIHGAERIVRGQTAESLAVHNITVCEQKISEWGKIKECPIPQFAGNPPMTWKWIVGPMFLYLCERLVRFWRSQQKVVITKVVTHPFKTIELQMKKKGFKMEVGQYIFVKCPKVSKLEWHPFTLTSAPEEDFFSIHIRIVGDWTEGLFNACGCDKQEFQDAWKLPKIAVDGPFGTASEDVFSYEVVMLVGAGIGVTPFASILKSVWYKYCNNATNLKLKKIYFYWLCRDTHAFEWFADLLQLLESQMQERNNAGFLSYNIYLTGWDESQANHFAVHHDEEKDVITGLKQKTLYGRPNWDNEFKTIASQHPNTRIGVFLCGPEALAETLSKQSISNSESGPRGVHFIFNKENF
NOX2, sequence (P19878 whole entry partner, one chain of several): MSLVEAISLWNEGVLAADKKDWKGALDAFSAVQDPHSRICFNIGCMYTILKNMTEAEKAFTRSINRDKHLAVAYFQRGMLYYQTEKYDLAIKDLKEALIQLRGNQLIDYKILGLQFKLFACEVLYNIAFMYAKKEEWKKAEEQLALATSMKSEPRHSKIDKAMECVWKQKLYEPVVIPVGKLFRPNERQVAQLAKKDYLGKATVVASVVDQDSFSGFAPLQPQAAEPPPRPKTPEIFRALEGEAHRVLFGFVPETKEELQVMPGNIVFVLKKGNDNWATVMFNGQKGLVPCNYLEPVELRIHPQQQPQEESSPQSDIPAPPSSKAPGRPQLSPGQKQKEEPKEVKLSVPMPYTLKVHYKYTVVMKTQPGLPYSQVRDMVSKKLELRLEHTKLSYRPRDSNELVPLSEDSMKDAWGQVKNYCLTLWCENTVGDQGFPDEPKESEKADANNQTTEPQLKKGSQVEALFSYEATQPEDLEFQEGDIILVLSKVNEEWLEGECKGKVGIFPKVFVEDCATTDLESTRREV
NOX2, sequence (P14598 whole entry partner, one chain of several): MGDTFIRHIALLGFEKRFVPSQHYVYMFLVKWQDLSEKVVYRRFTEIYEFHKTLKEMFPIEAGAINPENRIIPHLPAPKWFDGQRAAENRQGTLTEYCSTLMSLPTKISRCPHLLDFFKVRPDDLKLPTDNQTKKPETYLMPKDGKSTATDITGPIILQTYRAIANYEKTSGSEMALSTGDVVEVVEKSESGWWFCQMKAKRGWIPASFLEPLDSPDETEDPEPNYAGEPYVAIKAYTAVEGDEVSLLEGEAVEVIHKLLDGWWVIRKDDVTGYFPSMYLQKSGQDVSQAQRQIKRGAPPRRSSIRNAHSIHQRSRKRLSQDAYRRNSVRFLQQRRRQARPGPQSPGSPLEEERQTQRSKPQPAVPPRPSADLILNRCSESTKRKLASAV
Method: Measurement of human NOX2 activity in cells was performed by a cytochrome c (200 μM) reduction assay. Superoxide production of intact PLB-985 cells (3 × 10^5 cells) was measured after PMA stimulation (5 μM) as reported.[40],[42] The compounds (0.04–40 μM) were added to the prestimulated cells and incubated for 1 h at 37 °C and 5% CO2, 120 rpm (New Brunswick S41i incubator shaker, Eppendorf). The absorbance at 550 nm was followed at 37 °C over a time course of 20 min in a ClarioStar plate reader (BMG Labtech).

human MAOA = target: T3, human MAOA (Homo sapiens, UniProt P21397); assay: Purified MAOA, Amplex Red/horseradish peroxidase coupled assay; assay type: biochemical; details: 70 nM MAOA, 1 mM kynuramine
T3 construct: made in house; host or cells: Pichia pastoris
T3 sequence (P21397 1-527): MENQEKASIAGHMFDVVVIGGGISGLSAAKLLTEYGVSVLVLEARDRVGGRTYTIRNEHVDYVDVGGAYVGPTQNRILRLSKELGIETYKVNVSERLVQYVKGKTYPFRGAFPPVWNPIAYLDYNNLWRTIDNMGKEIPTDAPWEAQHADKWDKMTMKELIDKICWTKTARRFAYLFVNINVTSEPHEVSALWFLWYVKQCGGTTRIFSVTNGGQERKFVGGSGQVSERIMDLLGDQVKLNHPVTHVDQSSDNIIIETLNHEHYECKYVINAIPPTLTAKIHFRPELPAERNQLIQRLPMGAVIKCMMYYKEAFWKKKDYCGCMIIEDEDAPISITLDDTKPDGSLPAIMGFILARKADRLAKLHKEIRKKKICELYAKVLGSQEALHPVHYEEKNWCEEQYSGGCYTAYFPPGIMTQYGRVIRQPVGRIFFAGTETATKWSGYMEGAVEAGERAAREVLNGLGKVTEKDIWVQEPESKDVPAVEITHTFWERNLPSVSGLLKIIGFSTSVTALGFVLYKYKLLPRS
Method: as §1

Row | MAOB inhibition relative to rasagiline (weaker) (human MAOB) [fold] | IC50 (human MAOB) [µM] | IC50 (human NOX1) [µM] | potency against NOX2 in cellulo relative to VAS2870 (more potent) (NOX2; PLB-985 cells) [fold] | IC50 (NOX2) [µM] | IC50 (human MAOA) [µM] | IC50 Purified MAOB (human MAOB) | IC50 on human NOXs, NOX1 (AMPLEX RED) (human NOX1) | IC50 Purified MAOA (human MAOA) | Compound
1 | 10 | 0.182 ± 0.1 | 22 ± 6.7 | 2 | 0.135 ± 0.02 | 59 ± 5.9 |  |  |  | C#CCN(C)Cc1ccc(Cn2nnc3c(Sc4nc5ccccc5o4)ncnc32)cc1 [Compound 9a, N-(4-((7-(Benzo[d]oxazol-2-ylthio)-3H-[1,2,3]triazolo[4,5-d]pyrimidin-3-yl)methyl)benzyl)-N-methylprop-2-yn-1-amine]
2 |  |  | > 100 |  | 17.6 ± 3.4 | 41.6 ± 3.7 | Inhibition^b | inactive |  | C#CCNC(=O)c1ccc(Cn2nnc3c(Sc4nc5ccccc5o4)ncnc32)cc1 [Compound 8b, (4-((7-Benzo[d]oxazol-2-yl-thio)-3H-[1,2,3]triazole[4,5-d]pyrimidin-3-yl)methyl)-N-(prop-2-in-1-yl)benzamide]
3 |  | > 100 | 32.9 ± 2.9 |  | 2.81 ± 0.88 | > 100 | ineffective; also recorded: Not detected |  | ineffective; also recorded: Not detected | CCCNC(=O)c1ccc(Cn2nnc3c(Sc4nc5ccccc5o4)ncnc32)cc1 [Compound 8a, (4-((7-Benzo[d]oxazol-2-yl-thio)-3H-[1,2,3]triazole[4,5-d]pyrimidin-3-yl)methyl)-N-(propyl)benzamide]
